Data reported in ChEMBL document CHEMBL3638618, “Uracil compound or salt thereof having human deoxyuridine triphosphatase inhibitory activity” (2013).

Biological target: T1, Deoxyuridine 5'-triphosphate nucleotidohydrolase, mitochondrial (Homo sapiens, UniProt P33316)
T1 sequence (P33316 whole entry): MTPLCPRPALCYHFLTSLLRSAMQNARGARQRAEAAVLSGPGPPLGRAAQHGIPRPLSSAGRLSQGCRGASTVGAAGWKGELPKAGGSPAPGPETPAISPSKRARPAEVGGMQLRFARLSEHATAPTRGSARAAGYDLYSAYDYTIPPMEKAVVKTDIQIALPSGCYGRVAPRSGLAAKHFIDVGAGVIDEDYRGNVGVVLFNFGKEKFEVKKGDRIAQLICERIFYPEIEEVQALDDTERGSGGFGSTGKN
Test: Inhibition Assay: The inhibitory activity of the compound against human dUTPase was determined by measuring the production of [5-3H]deoxyuridine monophosphate from [5-3H]deoxyuridine triphosphate.

Question: `C[C@@H](NS(=O)(=O)CCCOCn1ccc(=O)[nH]c1=O)c1cccc(OCCF)c1` was tested. Which IC50 did it give?
Answer: 410 nM
